Data set [1] has as its system Streptomyces sp. isolate ERINLG-201. Put plainly: Antibiotic sensitivity of the isolate. In kind it is cell-based. The protocol:
(ERINLG-201). The Streptomyces sp. isolate ERINLG-201 was recovered from Kodanad forest, (Southern Western Ghats) Tamil Nadu, India. The strain was Gram-positive filamentous bacterium. The culture characteristics of the new isolate were observed after 7, 14 and 21 days of incubation on different media. The color of the substrate mycelia was white. […] The temperature for growth ranged from 25 to 37° C. with optimum of 30° C. and the pH range was 6-12 with normal pH of 7. Utilization of various carbon sources by ERINLG-201 indicated a wide pattern of carbon source assimilation. […] The partial 16S rRNA gene sequences of isolate ERINLG-201 have been deposited in the GenBank database under accession number KC820651.

Data set [2] deals with Malassezia pachydermatis. The data set can be described thus: Minimum inhibitory concentration (MIC), fungi. To be noted: read-out: Minimum Inhibitory Concentration (MIC).
The subject of data set [3] is Candida albicans. Put plainly: Minimum inhibitory concentration (MIC), fungi. To be noted: read-out: Minimum Inhibitory Concentration (MIC).
Data set [4] relates to Staphylococcus epidermidis. The data set can be described thus: Minimum inhibitory concentration (MIC), broth dilution. The settings on record: 24 h, read-out: Minimum Inhibitory Concentration (MIC). A general note: Dilution methods test growth across graded concentrations, often in twofold steps.
Data set [5] relates to Escherichia coli (ESBL-3984). The data set can be described thus: Minimum inhibitory concentration (MIC), clinical isolate. To be noted: 24 h, read-out: Minimum Inhibitory Concentration (MIC).
Data set [6] relates to Salmonella paratyphi-B. The data set can be described thus: Minimum inhibitory concentration (MIC), broth dilution. In kind it is cell-based. To be noted: 24 h at 37° C.
Data set [7] relates to Shigella flexneri. The data set is described as above. To be noted: 24 h, read-out: Minimum Inhibitory Concentration (MIC).
The test system of data set [8] is Staphylococcus aureus. The description is as above. The settings on record: 24 h, read-out: Minimum Inhibitory Concentration (MIC).
Data set [9] concerns Bacillus subtilis. Described as above. The settings on record: 24 h, read-out: Minimum Inhibitory Concentration (MIC).
The test system of data set [10] is Klebsiella pneumoniae (ESBL-3894). The data set can be described thus: Minimum inhibitory concentration (MIC), clinical isolate. The settings on record: 24 h, read-out: Minimum Inhibitory Concentration (MIC).
The test system of data set [11] is Klebsiella pneumoniae (ESBL-3967). The description is as above. To be noted: 24 h, read-out: Minimum Inhibitory Concentration (MIC).
Data set [12] concerns Proteus vulgaris. The data set can be described thus: Minimum inhibitory concentration (MIC), broth dilution. The settings on record: 24 h, read-out: Minimum Inhibitory Concentration (MIC).
The subject of data set [13] is Escherichia coli (ESBL-3904). Put plainly: Minimum inhibitory concentration (MIC), clinical isolate. To be noted: 24 h, read-out: Minimum Inhibitory Concentration (MIC).
Data set [14] concerns Micrococcus luteus. The data set can be described thus: Minimum inhibitory concentration (MIC), broth dilution. To be noted: 24 h, read-out: Minimum Inhibitory Concentration (MIC).
The subject of data set [15] is Staphylococcus aureus (MRSA). The data set can be described thus: Minimum inhibitory concentration (MIC), clinical isolate. The settings on record: 24 h, read-out: Minimum Inhibitory Concentration (MIC).
Data set [16] has as its system Enterobacter aerogenes. The data set can be described thus: Minimum inhibitory concentration (MIC), broth dilution. To be noted: Klebsiella aerogenes, 24 h, read-out: Minimum Inhibitory Concentration (MIC).
The test system of data set [17] is Salmonella typhimurium. Described as above. The settings on record: Salmonella enterica, 24 h, read-out: Minimum Inhibitory Concentration (MIC).
Data set [18] relates to Pseudomonas aeruginosa. The data set is described as above. To be noted: 24 h, read-out: Minimum Inhibitory Concentration (MIC).
In data set [19] the test system is Klebsiella pneumoniae. The data set is described as above. To be noted: 24 h, read-out: Minimum Inhibitory Concentration (MIC).
The subject of data set [20] is A549 lung adenocarcinoma cancer cell line. Put plainly: Cytotoxic activity (MTT, absorbance at 540 nm). In kind it is cell-based, human. The protocol:
A549 lung adenocarcinoma cancer cell line was obtained from the National Institute of Cell Sciences, Pune. A549 cell line was maintained in complete tissue culture medium Dulbecco's Modified Eagle's Medium with 10% Fetal Bovine Serum and 2 mM L-Glutamine, along with antibiotics (about 100 International Unit/mL of penicillin, 100 μg/mL of streptomycin) with the pH adjusted to 7.2. The cytotoxicity was determined according to the method of Balachandran et al., (2013) with some changes. Cells (5000 cells/well) were seeded in 96 well plates containing medium with different concentrations such as 100, 80, 60, 40, 20, and 10 μg/mL. The cells were cultivated at 37° C. with 5% CO2 and 95% air in 100% relative humidity. After various durations of cultivation, the solution in the medium was removed. An aliquot of 100 μL of medium containing 1 mg/mL of 3-(4,5-dimethylthiazol-2-yl)-2,5-diphenyl-tetrazolium bromide was loaded in the plate. The cells were cultured for 4 h and then the solution in the medium was removed. An aliquot of 100 μL of DMSO was added to the plate, which was shaken until the crystals were dissolved. The cytotoxicity against cancer cells was determined by measuring the absorbance of the converted dye at 540 nm in an Enzyme linked immune sorbant assay (ELISA) reader. Cytotoxicity of each sample was expressed as the half maximal inhibitory concentration (IC50) value. The IC50 value is the concentration of test sample that causes 50% inhibition of cell growth, averaged from three replicate experiments.

The test system of data set [21] is Kiebsiella pneumoniae (ESBL-75799). The data set can be described thus: Minimum inhibitory concentration (MIC), clinical isolate. To be noted: 24 h, read-out: Minimum Inhibitory Concentration (MIC).
Data set [22] deals with Klebsiella pneumoniae (ESBL-3971). Described as above. To be noted: 24 h, read-out: Minimum Inhibitory Concentration (MIC).

In brackets after ≈: the same amount, converted by molar mass.

Consider `O=C(Cc1cccs1)N[C@@H]1C(=O)N2C(C(=O)[O-])=C(C[n+]3ccccc3)CS[C@H]12` [cephaloridine], for which the “sensitivity of ERINLG-201 towards antibiotic” value in [1] was “sensitivity”.
For `CC(=O)N1CCN(c2ccc(OCC3COC(Cn4ccnc4)(c4ccc(Cl)cc4Cl)O3)cc2)CC1` (stereo not drawn) [Ketoconazole], the MIC in data set [2] and in [3] was 25 µg/mL (≈ 47 µM) in each case.
With vencomycin, in [1], the “sensitivity of ERINLG-201 towards antibiotic” value is listed as “sensitivity”.
Regarding `CN1C(=O)N2CC(C)(OC3=C2C(=O)c2ccccc2C3=O)c2ccccc21` (stereo not drawn) [C-5, Bluemomycin], the MIC in data set [4] was 50 µg/mL (≈ 139 µM); in [5], 12.5 µg/mL (≈ 34.7 µM); in [2], 50 µg/mL (≈ 139 µM); in data set [6] it was 25 µg/mL (≈ 69.4 µM); in data set [7] it was 12.5 µg/mL (≈ 34.7 µM); in data set [8] it was above 100 µg/mL. For the same molecule, the MIC came to 50 µg/mL (≈ 139 µM) in data set [9]; 12.5 µg/mL (≈ 34.7 µM) in data set [10]; 6.25 µg/mL (≈ 17.3 µM) in data set [11]; 100 µg/mL (≈ 277 µM) in data set [12]; 25 µg/mL (≈ 69.4 µM) in data set [13]; 25 µg/mL (≈ 69.4 µM) in data set [14]. In addition, the MIC in data set [15] turned out to be 25 µg/mL (≈ 69.4 µM); in data set [16], 12.5 µg/mL (≈ 34.7 µM); in data set [3] it was 50 µg/mL (≈ 139 µM); in data set [17], 12.5 µg/mL (≈ 34.7 µM); in data set [18], 12.5 µg/mL (≈ 34.7 µM); in data set [19], 6.25 µg/mL (≈ 17.3 µM). Besides, the MIC is 12.5 µg/mL (≈ 34.7 µM) in [21] and above 100 µg/mL in data set [22]. For the same molecule, the “% (cytotoxicity)” value in [20] (5 μg/mL) turned out to be 10.5%; in data set [20] (10 μg/mL), 26.3%; in [20] (20 μg/mL), 51.7%; in data set [20] (40 μg/mL), 60.2%; in [20] (60 μg/mL), 68.6%; in data set [20] (80 μg/mL), 78.6%. Besides, the “% (cytotoxicity)” value in data set [20] (100 μg/mL) is listed as 88.7%.
As for `CO[C@H]1/C=C/O[C@@]2(C)Oc3c(C)c(O)c4c(O)c(cc(O)c4c3C2=O)NC(=O)/C(C)=C\C=C\[C@H](C)[C@H](O)[C@@H](C)[C@@H](O)[C@@H](C)[C@H](OC(C)=O)[C@@H]1C` [rifamycin], in data set [1], the “sensitivity of ERINLG-201 towards antibiotic” value is listed as “sensitivity”.
`CCn1cc(C(=O)O)c(=O)c2cc(F)c(N3CCNCC3)cc21` [norfloxacin]: the “sensitivity of ERINLG-201 towards antibiotic” value in data set [1] was “sensitivity”.
Consider `NCC[C@H](O)C(=O)N[C@@H]1C[C@H](N)[C@@H](O[C@H]2O[C@H](CN)[C@@H](O)[C@H](O)[C@H]2O)[C@H](O)[C@H]1O[C@H]1O[C@H](CO)[C@@H](O)[C@H](N)[C@H]1O` [amikacin], for which the “sensitivity of ERINLG-201 towards antibiotic” value in data set [1] was “sensitivity”.
penicillin: the “sensitivity of ERINLG-201 towards antibiotic” value in [1] is “sensitivity”.
Consider `CC[C@H]1OC(=O)[C@H](C)[C@@H](O[C@H]2C[C@@](C)(OC)[C@@H](O)[C@H](C)O2)[C@H](C)[C@@H](O[C@@H]2O[C@H](C)C[C@H](N(C)C)[C@H]2O)[C@](C)(O)C[C@@H](C)C(=O)[C@H](C)[C@@H](O)[C@]1(C)O` [erythromycin], for which the “sensitivity of ERINLG-201 towards antibiotic” value in data set [1] is “sensitivity”.
As to `[H]/N=C(/N)N[C@H]1[C@H](O)[C@@H](O)[C@H](O[C@@H]2O[C@@H](C)[C@](O)(C=O)[C@H]2O[C@@H]2O[C@@H](CO)[C@H](O)[C@@H](O)[C@@H]2NC)[C@@H](N/C(N)=N\[H])[C@@H]1O` [Streptomycin], the MIC was 25 µg/mL (≈ 43 µM) in [4]; 25 µg/mL (≈ 43 µM) in data set [5]; 6.25 µg/mL (≈ 10.7 µM) in data set [6]; 6.25 µg/mL (≈ 10.7 µM) in data set [7]; 6.25 µg/mL (≈ 10.7 µM) in data set [8]; 25 µg/mL (≈ 43 µM) in data set [9]. For the same molecule, the MIC in data set [10] came out at 6.25 µg/mL (≈ 10.7 µM); in data set [11], 25 µg/mL (≈ 43 µM); in data set [12], 6.25 µg/mL (≈ 10.7 µM); in data set [13], 25 µg/mL (≈ 43 µM); in data set [14], 6.25 µg/mL (≈ 10.7 µM); in data set [15], 6.25 µg/mL (≈ 10.7 µM). Moreover, the MIC was found to be 25 µg/mL (≈ 43 µM) in data set [16]; 25 µg/mL (≈ 43 µM) in [17]; 25 µg/mL (≈ 43 µM) in [18]; 25 µg/mL (≈ 43 µM) in data set [19]; 25 µg/mL (≈ 43 µM) in [21]; 6.25 µg/mL (≈ 10.7 µM) in data set [22].
`CC1(C)S[C@@H]2[C@H](NC(=O)[C@H](N)c3ccccc3)C(=O)N2[C@H]1C(=O)O` [ampicillin]: the “sensitivity of ERINLG-201 towards antibiotic” value in data set [1] was “sensitivity”.
For the molecule `O=C(O)c1cn(C2CC2)c2cc(N3CCNCC3)c(F)cc2c1=O` [ciprofloxacin], the “sensitivity of ERINLG-201 towards antibiotic” value in data set [1] is reported as “sensitivity”.
Turning to gentamicin, the “sensitivity of ERINLG-201 towards antibiotic” value in data set [1] was “sensitivity”.

For the origin of these results see US10036048B1, “Process for obtaining a naphthoquinone derivative from Streptomyces sp” (KING SAUD UNIVERSITY, priority 2017, dated 2018).
